# Measured values: ChEMBL document CHEMBL1132596, “Non-peptide corticotropin-releasing hormone antagonists: syntheses and structure-activity relationships of 2-anilinopyrimidines and -triazines” (J Med Chem, 1999)
# Several values for one entry are separate records, joined by “and”; a condition that tells them apart may be missing. Equal values may be shown once.
# Tested on: not listed separately
# Assay: The clearance was measured in rat at dose 30 mg/kg after intravenous administration.
# Format: ADME, organism-based
# Design: dose 30 mg/kg, route intravenous
# Settings: in vivo
row,Structure (SMILES),clearance [mL/min/kg]
1,CCN(c1nc(C)cc(C)n1)c1c(Br)cc(OC)cc1OC,88.7

# Tested on: not listed separately
# Assay: The maximum concentration of the compound was measured in rat at dose 30 mg/kg after intraperitoneal administration.
# Format: ADME, organism-based
# Design: dose 30 mg/kg, route intraperitoneal
# Settings: in vivo, ip
row,Structure (SMILES),Cmax [nM]
1,CCN(c1nc(C)cc(C)n1)c1c(Br)cc(OC)cc1OC,366

# Tested on: not listed separately
# Assay: The maximum concentration of the compound was measured in rat at dose 30 mg/kg after intravenous administration.
# Format: ADME, organism-based
# Design: dose 30 mg/kg, route intravenous
# Settings: in vivo
row,Structure (SMILES),Cmax [nM]
1,CCN(c1nc(C)cc(C)n1)c1c(Br)cc(OC)cc1OC,1880

# Tested on: not listed separately
# Assay: Bioavailability in rat (dose 30 mg/kg i.p.)
# Format: ADME, organism-based
# Settings: in vivo, ip
row,Structure (SMILES),bioavailability [%]
1,CCN(c1nc(C)cc(C)n1)c1c(Br)cc(OC)cc1OC,4

# Tested on: not listed separately
# Assay: The bioavailability measured as F(%) on rat at dose 30 mg/kg […].
# Format: ADME, organism-based
# Settings: in vivo
row,Structure (SMILES),bioavailability [%]
1,CCN(c1nc(C)cc(C)n1)c1c(Br)cc(OC)cc1OC,26

# Tested on: not listed separately
# Assay: the half life period was measured in rat at dose 30 mg/kg after intravenous administration.
# Format: ADME, organism-based
# Design: dose 30 mg/kg, route intravenous
# Settings: in vivo
row,Structure (SMILES),half-life [h]
1,CCN(c1nc(C)cc(C)n1)c1c(Br)cc(OC)cc1OC,5.9

# Tested on: not listed separately
# Assay: Tmax is the time taken to reach maximum concentration was measured on rat at dose 30 mg/kg after intravenous administration.
# Format: ADME, organism-based
# Design: dose 30 mg/kg, route intravenous
# Settings: in vivo
row,Structure (SMILES),Tmax [h]
1,CCN(c1nc(C)cc(C)n1)c1c(Br)cc(OC)cc1OC,0.25

# Target: T1, Corticotropin-releasing factor receptor 1 (Rattus norvegicus, UniProt P35353)
# T1 sequence (P35353 whole entry): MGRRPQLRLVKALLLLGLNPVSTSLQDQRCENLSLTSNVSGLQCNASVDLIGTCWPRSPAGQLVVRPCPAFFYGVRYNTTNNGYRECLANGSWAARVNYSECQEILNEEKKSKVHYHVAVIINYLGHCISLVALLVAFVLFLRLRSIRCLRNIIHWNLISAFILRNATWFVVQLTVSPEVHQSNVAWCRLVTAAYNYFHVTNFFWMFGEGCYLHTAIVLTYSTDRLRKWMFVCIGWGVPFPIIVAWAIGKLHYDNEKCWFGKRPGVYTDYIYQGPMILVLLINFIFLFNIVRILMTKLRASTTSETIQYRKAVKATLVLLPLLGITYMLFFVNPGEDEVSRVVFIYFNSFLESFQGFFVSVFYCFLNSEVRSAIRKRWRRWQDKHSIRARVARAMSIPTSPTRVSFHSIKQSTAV
# Assay: Binding affinity was measured on rat Corticotropin releasing factor receptor 1
# Settings: not given
row,Structure (SMILES),Ki [nM]
1,CCc1ccc(N(C)c2nc(C)cc(C)n2)c(Br)c1,187
2,CCN(c1nc(C)cc(C)n1)c1ccc(C(C)C)cc1I,38
3,Cc1cc(C)nc(N(C)c2ccccc2I)n1,3650
4,Cc1ccc(N(C)c2nc(C)cc(C)n2)c(Br)c1,1100

# Target: T2, Corticotropin-releasing factor receptor 1 (Homo sapiens, UniProt P34998)
# T2 sequence (P34998 whole entry): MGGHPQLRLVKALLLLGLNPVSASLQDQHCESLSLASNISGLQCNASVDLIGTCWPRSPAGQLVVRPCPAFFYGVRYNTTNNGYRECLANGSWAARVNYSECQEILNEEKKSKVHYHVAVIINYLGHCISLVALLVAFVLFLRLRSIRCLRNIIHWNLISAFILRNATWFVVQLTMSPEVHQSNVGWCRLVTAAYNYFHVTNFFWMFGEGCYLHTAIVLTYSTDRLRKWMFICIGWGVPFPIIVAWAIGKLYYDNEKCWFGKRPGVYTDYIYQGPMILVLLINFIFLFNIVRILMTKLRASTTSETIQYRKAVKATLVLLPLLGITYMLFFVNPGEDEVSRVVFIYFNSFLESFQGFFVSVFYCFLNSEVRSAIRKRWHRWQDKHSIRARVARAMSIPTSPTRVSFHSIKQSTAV
# Assay: Binding affinity for human recombinant corticotropin releasing factor receptor 1
# Settings: not given
row,Structure (SMILES),Ki
1,CCCCN(CC)c1nc(C)nc(N(CC)c2c(C)cc(C)cc2C)n1,23 nM
2,CCN(CC)c1cc(C)nc(N(CC)c2ccc(N(C)C)cc2Br)n1,27 nM
3,CCCCN(CC)c1cc(C)nc(N(CC)c2ccc(I)cc2Br)n1,14 nM
4,CCN(c1nc(C)cc(C)n1)c1c(Br)cc(C(C)C)cc1OC,26 nM
5,CCC(CC)Nc1nc(C)nc(N(CC)c2ccc(C(C)C)cc2Br)n1,41 nM
6,CCN(CC)c1cc(C)nc(N(CC)c2c(Br)cc(C(C)C)cc2SC)n1,26 nM
7,CCN(CC)c1nc(C)nc(N(CC)c2ccc(N(C)C)cc2C(F)(F)F)n1,20 nM
8,CCCCN(CC#N)c1nc(C)nc(N(CC)c2ccc(N(C)C)cc2C(F)(F)F)n1,6 nM
9,CCN(c1nc(C)cc(C)n1)c1ccc(N(C)C)cc1C,54 nM
10,CCN(c1nc(C)cc(N(CCOC)Cc2ccccc2)n1)c1ccc(C(C)C)cc1Br,14 nM
11,CCN(CC)c1cc(C)nc(N(CC)c2c(Cl)cc(Br)cc2Cl)n1,24 nM
12,C=CCN(c1nc(C)nc(N(CC)c2ccc(C(C)C)cc2Br)n1)C1CC1,5 nM
13,CCCCN(CC)c1nc(C)nc(N(CC)c2ccc(C(C)C)cc2Br)n1,5 nM
14,CCN(CC)c1cc(C)nc(N(CC)c2c(Br)cc(C(C)=O)cc2OC)n1,28 nM
15,CCCCN(Cc1nn[nH]n1)c1cc(C)nc(N(CC)c2ccc(C(C)C)cc2Br)n1,> 1000 nM
16,CCN(CC)c1cc(C)nc(N(CC)c2c(Br)cc(Br)cc2OC)n1,31 nM
17,CCN(c1nc(C)nc(N(CCOC)CC2CC2)n1)c1c(C)cc(C)cc1C,25 nM
18,CCCCN(CCOC)c1nc(C)nc(N(CC)c2c(C)cc(C)cc2C)n1,13 nM
19,CCN(CC)c1cc(C)nc(N(CC)c2ccc(C(C)C)cc2Br)n1,22 nM and 30 nM
20,CCN(c1nc(C)cc(C)n1)c1c(Br)cc(N(C)C)cc1OC,5 nM
21,C=CCNc1nc(C)nc(N(CC)c2ccc(C(C)C)cc2Br)n1,33 nM
22,CCCN(CCC#N)c1nc(C)nc(N(CC)c2ccc(N(C)C)cc2C)n1,7 nM
23,CCN(CC)c1nc(C)nc(N(CC)c2c(Br)cc(OC)cc2OC)n1,10 nM
24,CCN(CC)c1cc(C)nc(N(CC)c2ccc(S(C)(=O)=O)cc2Br)n1,24 nM

row,Structure (SMILES),Ki
1,CCN(CC)c1cc(C)nc(N(CC)c2ccc(C(C)=O)cc2Br)n1,5 nM
2,CCN(CC)c1cc(C)nc(N(CC)c2ccc(SC)cc2Br)n1,24 nM
3,CCC(CC)c1cc(C)nc(N(CC)c2ccc(C(C)C)cc2Br)n1,2 nM
4,CCCN(CC1CC1)c1nc(C)nc(N(CC)c2ccc(N(C)C)cc2C(F)(F)F)n1,5 nM
5,CCCN(CCOC)c1cc(C)nc(N(CC)c2ccc(C(C)C)cc2Br)n1,11 nM
6,C=CCN(CC=C)c1nc(C)nc(N(CC)c2ccc(OC(F)(F)F)cc2Br)n1,4 nM
7,CCN(CCOC)c1nc(C)nc(N(CC)c2c(C)cc(C)cc2C)n1,31 nM
8,CCN(CCOC)c1cc(C)nc(N(CC)c2ccc(C(C)C)cc2Br)n1,22 nM
9,CCC(CC)CNc1cc(C)nc(N(CC)c2ccc(C(C)C)cc2Br)n1,44 nM
10,CCN(CC)c1nc(C)nc(N(CC)c2ccc(C(C)=O)cc2Br)n1,17 nM
11,CCN(c1ccc(C(C)C)cc1)c1nc(C)cc(C)n1,> 1000 nM
12,C=CCN(CC=C)c1nc(C)nc(N(CC)c2ccc(N(C)C)cc2Br)n1,3 nM
13,CCCN(CCC)c1nc(C)nc(N(CC)c2ccc(N(C)C)cc2C)n1,7 nM
14,CCN(c1nc(C)cc(C)n1)c1c(Br)cc(C(C)C)cc1SC,51 nM
15,CCN(c1nc(C)cc(C)n1)c1ccc(OC)cc1SC,60 nM
16,CCN(c1nc(C)cc(C)n1)c1ccc(N(C)C)cc1SC,20 nM
17,CCCN(CCC)c1nc(C)nc(N(CC)c2ccc(N(C)C)cc2C(F)(F)F)n1,6 nM
18,CCN(c1nc(C)cc(N2CCNCC2)n1)c1ccc(C(C)C)cc1Br,> 1000 nM
19,CCN(c1nc(C)cc(C)n1)c1ccc(OC)cc1Br,35 nM
20,CCCN(CCC)c1nc(C)nc(N(CC)c2ccc(C(C)C)cc2Br)n1,4 nM
21,CCN(CC)c1cc(C)nc(N(CC)c2ccc(N(C)C)cc2C(F)(F)F)n1,11 nM
22,CCCCc1ccc(N(CC)c2nc(C)cc(C)n2)c(Br)c1,> 100 nM
23,CCCN(CC1CC1)c1cc(C)nc(N(CC)c2ccc(C(C)C)cc2Br)n1,9 nM
24,CCCCN(CC)c1cc(C)nc(N(CC)c2ccc(C(C)C)cc2Br)n1,19 nM

row,Structure (SMILES),Ki
1,CCN(CC)c1cc(C)nc(N(CC)c2c(Cl)cc(OC)cc2OC)n1,10 nM
2,CCN(CC)c1cc(C)nc(N(CC)c2c(Br)cc(OC)cc2OC)n1,48 nM
3,CCCN(c1cc(C)nc(N(CC)c2ccc(C(C)C)cc2Br)n1)C1CC1,5 nM
4,CCN(CC)c1cc(C)nc(N(CC)c2ccc(I)cc2Br)n1,9 nM
5,CCN(c1nc(C)cc(C)n1)c1ccc(C(C)=O)cc1SC,90 nM
6,CCCN(CCC#N)c1nc(C)nc(N(CC)c2ccc(N(C)C)cc2C(F)(F)F)n1,5 nM
7,CCCCN(CC)c1nc(C)nc(N(CC)c2ccc(OC(F)(F)F)cc2Br)n1,5 nM
8,CCN(c1nc(C)nc(N(CC2CC2)CC2CC2)n1)c1ccc(N(C)C)cc1C(F)(F)F,5 nM
9,CCN(CC)c1cc(C)nc(N(CC)c2c(Cl)cc(OC)cc2Cl)n1,15 nM
10,CCN(Cc1ccccc1)c1cc(C)nc(N(CC)c2ccc(C(C)C)cc2Br)n1,17 nM
11,CCN(c1nc(C)cc(N(CCOC)CCOC)n1)c1ccc(C(C)C)cc1Br,25 nM
12,CCN(c1nc(C)cc(C)n1)c1ccccc1Br,> 1000 nM
13,CCN(c1nc(C)nc(N(CCOC)CCOC)n1)c1ccc(C(C)C)cc1Br,18 nM
14,CCN(c1nc(C)cc(C)n1)c1ccc(C(C)(C)C)cc1Br,> 100 nM
15,CCCCN(CC)c1cc(C)nc(N(CC)c2ccc(C(C)=O)cc2Br)n1,8 nM
16,CCCCN(CCC#N)c1nc(C)nc(N(CC)c2ccc(N(C)C)cc2C)n1,8 nM
17,CCc1cc(CC)nc(N(CC)c2ccc(C(C)C)cc2Br)n1,> 100 nM
18,CCN(CC)c1nc(C)nc(N(CC)c2ccc(N(C)C)cc2Br)n1,6 nM
19,C=CCN(CC=C)c1nc(C)nc(N(CC)c2ccc(C(C)C)cc2Br)n1,4 nM
20,CCN(c1nc(C)cc(N2CCCCC2)n1)c1ccc(C(C)C)cc1Br,29 nM
21,CCN(c1nc(C)cc(N2CCOCC2)n1)c1ccc(C(C)C)cc1Br,22 nM
22,CCCCN(CC#N)c1nc(C)nc(N(CC)c2ccc(N(C)C)cc2C)n1,8 nM
23,CCCCN(Cc1nnnn1C)c1cc(C)nc(N(CC)c2ccc(C(C)C)cc2Br)n1,41 nM
24,CCN(c1nc(C)cc(C)n1)c1c(Br)cc(OC)cc1OC,12 nM

# Tested on: not listed separately
# Assay: Tmax is the time taken to reach maximum concentration was measured on rat at dose 30 mg/kg after intraperitoneal administration.
# Format: ADME, organism-based
# Design: dose 30 mg/kg, route intraperitoneal
# Settings: in vivo, ip
row,Structure (SMILES),Tmax [h]
1,CCN(c1nc(C)cc(C)n1)c1c(Br)cc(OC)cc1OC,1.2
